# Several values for one entry are separate records, joined by “and”; a condition that tells them apart may be missing. Equal entries are not always repeated. Toxic doses and inconclusive results are not listed.
# System: BDF1 mice, P388 leukemia ip, median survival T/C
# Assay: NCI In Vivo Anticancer Drug Screen. Data for tumor model P388 Leukemia (intraperitoneal) in B6D2F1 (BDF1) mice
# Conditions: endpoint: median survival time, higher = longer survival
# Method in brief: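 Reported as T/C, where T is the survival measurement in dosed animals and C the same measurement in vehicle controls.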
# [1] = dose: 100.0 mg/kg/injection, schedule: Q01DX009 (ip), vehicle: saline with Tween-80
# [2] = dose: 200.0 mg/kg/injection, schedule: Q01DX009 (ip), vehicle: saline with Tween-80
# [3] = dose: 400.0 mg/kg/injection, schedule: Q01DX009 (ip), vehicle: saline with Tween-80
# [4] = dose: 25.0 mg/kg/injection, schedule: Q01DX009 (ip), vehicle: saline with Tween-80
# [5] = dose: 50.0 mg/kg/injection, schedule: Q01DX009 (ip), vehicle: saline with Tween-80
# [6] = dose: 50.0 mg/kg/injection, schedule: Q04DX003 (ip), vehicle: saline
# [7] = dose: 100.0 mg/kg/injection, schedule: Q04DX003 (ip), vehicle: saline
smiles,measurement,setting,value
CC1(C#N)CC(C#N)Nc2ccccc2N1 (centres undefined),T/C,"dose: 100.0 mg/kg/injection, schedule: Q01DX001 (ip), vehicle: saline",104 % of control
same,T/C,"dose: 200.0 mg/kg/injection, schedule: Q01DX001 (ip), vehicle: saline",91 % of control
same,T/C,"dose: 400.0 mg/kg/injection, schedule: Q01DX001 (ip), vehicle: saline",100 % of control
C=CCCCCCCCCC(=O)NCC1CC1,T/C,[1],100 % of control
same,T/C,[2],90 % of control
same,T/C,[3],86 % of control
Cc1ccc2c[n+]3cc4ccccc4cc3cc2c1,T/C,"dose: 1.56 mg/kg/injection, schedule: Q01DX009 (ip), vehicle: saline",113 % of control
same,T/C,"dose: 4.5 mg/kg/injection, schedule: Q04DX003 (ip), vehicle: saline",113 % of control
same,T/C,"dose: 4.6 mg/kg/injection, schedule: Q01DX009 (ip), vehicle: saline",150 % of control
same,T/C,"dose: 9.0 mg/kg/injection, schedule: Q04DX003 (ip), vehicle: saline",86 % of control
COC(=O)c1c(-c2ccccc2)c(-c2ccccc2)nn(-c2ccccc2)c1=O,T/C,"dose: 400.0 mg/kg/injection, schedule: Q01DX001 (ip), vehicle: saline with Tween-80",87 % of control
O=C1c2ccccc2C(=O)C(N2CCOCC2)C1Cl (centres undefined),T/C,"dose: 3.0 mg/kg/injection, schedule: Q01DX009 (ip), vehicle: saline with Tween-80",98 % of control
same,T/C,"dose: 6.0 mg/kg/injection, schedule: Q01DX009 (ip), vehicle: saline with Tween-80",97 % of control
same,T/C,"dose: 12.0 mg/kg/injection, schedule: Q01DX009 (ip), vehicle: saline with Tween-80",100 % of control
COc1cc2c(c(OC)c1OC)-c1ccc(O)cc1[C@@H](NC(C)=O)CC2,T/C,"dose: 2.5 mg/kg/injection, schedule: Q01DX010 (ip), vehicle: water",86 % of control
same,T/C,"dose: 5.0 mg/kg/injection, schedule: Q01DX010 (ip), vehicle: water",118 % of control
same,T/C,"dose: 10.0 mg/kg/injection, schedule: Q01DX010 (ip), vehicle: water",109 % of control
Nc1ccc(CCc2ccccc2)cc1,T/C,"dose: 12.5 mg/kg/injection, schedule: Q01DX009 (ip), vehicle: saline with Tween-80",122 % of control
same,T/C,[4],100 % of control
same,T/C,[5],109 % of control
same,T/C,"dose: 56.25 mg/kg/injection, schedule: Q04DX003 (ip), vehicle: saline with Tween-80",108 % of control
same,T/C,"dose: 75.0 mg/kg/injection, schedule: Q01DX009 (ip), vehicle: saline with Tween-80",118 % of control
same,T/C,"dose: 112.5 mg/kg/injection, schedule: Q04DX003 (ip), vehicle: saline with Tween-80",112 % of control
Cc1c(N)nc(Br)c2ccccc12,T/C,"dose: 100.0 mg/kg/injection, schedule: Q04DX003 (ip), vehicle: saline sonified",91 % of control
same,T/C,"dose: 200.0 mg/kg/injection, schedule: Q04DX003 (ip), vehicle: saline sonified",116 % of control
CC(=O)N1c2ccccc2Sc2cc(C(O)(C(F)(F)F)C(F)(F)F)ccc21,T/C,[4],86 % of control
same,T/C,[5],90 % of control
same,T/C,[1],90 % of control
CCCCNP(=O)(N1CC1C)N1CC1C (centres undefined),T/C,"dose: 33.0 mg/kg/injection, schedule: Q04DX003 (ip), vehicle: saline",122 % of control
same,T/C,[6],175 % of control and 181 % of control
same,T/C,[7],90 % of control
O=C(NNc1ccccc1)c1ccccc1,T/C,"dose: 50.0 mg/kg/injection, schedule: Q01DX009 (ip), vehicle: Klucel (hydroxypropylcellulose) (HPC)",105 % of control
same,T/C,"dose: 50.0 mg/kg/injection, schedule: Q04DX003 (ip), vehicle: Klucel (hydroxypropylcellulose) (HPC)",109 % of control
same,T/C,"dose: 100.0 mg/kg/injection, schedule: Q01DX009 (ip), vehicle: Klucel (hydroxypropylcellulose) (HPC)",105 % of control
same,T/C,"dose: 100.0 mg/kg/injection, schedule: Q04DX003 (ip), vehicle: Klucel (hydroxypropylcellulose) (HPC)",104 % of control
same,T/C,"dose: 200.0 mg/kg/injection, schedule: Q01DX009 (ip), vehicle: Klucel (hydroxypropylcellulose) (HPC)",120 % of control
same,T/C,"dose: 200.0 mg/kg/injection, schedule: Q04DX003 (ip), vehicle: Klucel (hydroxypropylcellulose) (HPC)",100 % of control
COc1ccc2c(c1)CC[C@@H]1[C@@H]2CC[C@]2(C)/C(=N\O)CC[C@@H]12,T/C,[1],104 % of control
same,T/C,[2],109 % of control
same,T/C,[3],90 % of control
CCOC(=O)CSc1c([N+](=O)[O-])c(C)nn1C,T/C,"dose: 3.12 mg/kg/injection, schedule: Q04DX003 (ip), vehicle: water",110 % of control
same,T/C,"dose: 6.25 mg/kg/injection, schedule: Q04DX003 (ip), vehicle: water",100 % of control and 106 % of control
same,T/C,"dose: 12.5 mg/kg/injection, schedule: Q04DX003 (ip), vehicle: water",92 % of control and 104 % of control
same,T/C,"dose: 25.0 mg/kg/injection, schedule: Q01DX009 (ip), vehicle: water",93 % of control
same,T/C,"dose: 25.0 mg/kg/injection, schedule: Q04DX003 (ip), vehicle: water",88 % of control and 100 % of control
same,T/C,"dose: 50.0 mg/kg/injection, schedule: Q01DX009 (ip), vehicle: water",90 % of control
same,T/C,"dose: 50.0 mg/kg/injection, schedule: Q04DX003 (ip), vehicle: water",97 % of control and 100 % of control and 113 % of control
same,T/C,"dose: 100.0 mg/kg/injection, schedule: Q01DX009 (ip), vehicle: water",93 % of control
same,T/C,"dose: 100.0 mg/kg/injection, schedule: Q04DX003 (ip), vehicle: water",101 % of control and 104 % of control
same,T/C,"dose: 200.0 mg/kg/injection, schedule: Q01DX009 (ip), vehicle: water",101 % of control
same,T/C,"dose: 200.0 mg/kg/injection, schedule: Q04DX003 (ip), vehicle: water",109 % of control
same,T/C,"dose: 400.0 mg/kg/injection, schedule: Q01DX009 (ip), vehicle: water",101 % of control
same,T/C,"dose: 400.0 mg/kg/injection, schedule: Q04DX003 (ip), vehicle: water",103 % of control
O=C(Oc1ccc([N+](=O)[O-])cc1)c1ccc(C[n+]2ccccc2)cc1,T/C,[5],91 % of control
same,T/C,"dose: 50.0 mg/kg/injection, schedule: Q01DX009 (ip), vehicle: saline",89 % of control
same,T/C,[6],91 % of control
same,T/C,[1],109 % of control
same,T/C,"dose: 100.0 mg/kg/injection, schedule: Q01DX009 (ip), vehicle: saline",89 % of control
same,T/C,[7],104 % of control and 108 % of control
same,T/C,[2],116 % of control
same,T/C,"dose: 200.0 mg/kg/injection, schedule: Q01DX009 (ip), vehicle: saline",96 % of control
same,T/C,"dose: 200.0 mg/kg/injection, schedule: Q04DX003 (ip), vehicle: saline",90 % of control and 100 % of control
COc1ccc(C(C)c2ccccc2)cc1 (centres undefined),T/C,"dose: 100.0 mg/kg/injection, schedule: Q04DX003 (ip), vehicle: saline with Tween-80",110 % of control
same,T/C,"dose: 200.0 mg/kg/injection, schedule: Q04DX003 (ip), vehicle: saline with Tween-80",105 % of control
same,T/C,"dose: 400.0 mg/kg/injection, schedule: Q04DX003 (ip), vehicle: saline with Tween-80",100 % of control
N#CC(C#N)=C1SCS1,T/C,"dose: 3.12 mg/kg/injection, schedule: Q01DX009 (ip), vehicle: saline with Tween-80",123 % of control
same,T/C,"dose: 6.25 mg/kg/injection, schedule: Q01DX009 (ip), vehicle: saline with Tween-80",123 % of control
O=c1[nH]cc(F)c(=O)n1C1OC(CO)C(O)C1O (centres undefined),T/C,"dose: 0.75 mg/kg/injection, schedule: Q01DX009 (ip), vehicle: saline",169 % of control and 180 % of control
same,T/C,"dose: 1.5 mg/kg/injection, schedule: Q01DX009 (ip), vehicle: saline",162 % of control and 217 % of control
same,T/C,"dose: 3.0 mg/kg/injection, schedule: Q01DX009 (ip), vehicle: saline",230 % of control and 188 % of control
same,T/C,"dose: 6.0 mg/kg/injection, schedule: Q01DX009 (ip), vehicle: saline",100 % of control
O=[N+]([O-])c1ccc(/C=C/c2cc(N(CCO)CCO)c3ccccc3n2)cc1,T/C,[5],94 % of control
same,T/C,[1],99 % of control
same,T/C,[2],100 % of control

# Reference: PubChem BioAssay AID328 (DTP/NCI, 2004)
